Experimental data reported in US11466044B2 (WAYNE STATE UNIVERSITY, priority 2017, dated 2022).
In brackets after ≈: the same amount, converted by molar mass. Like-named read-outs stand apart in the source and are kept apart here.

Experiments:
[1] = system: E coli carrying specific resistance determinants; experiment: MIC by broth microdilution, E coli carrying specific resistance determinants; format: cell-based; conditions: for MIC AG037 E. coli APH(3′)-III: engineered strain AG037 APH(3′)-III; for MIC pH421 E. coli APH(3′)-I: engineered strain pH421 APH(3′)-I; for MIC pH422 E. coli APH(3′)-II: engineered strain pH422 APH(3′)-II; for MIC pH423 E. coli APH(3′)-VI: engineered strain pH423 APH(3′)-VI; for MIC: Escherichia coli
[2] = system: MRSA; experiment: MIC by broth microdilution, MRSA isolates; format: cell-based; conditions: for MIC50 MRSA AG38: strain AG38
[3] = system: P aeruginosa; experiment: MIC by broth microdilution, P aeruginosa isolates; format: cell-based, Pseudomonas aeruginosa; conditions: for MIC AG220 P. aerugin / MIC: strain AG220 Pseudomonas aeruginosa ATCC27853; for MIC: read-out: MIC AG220 P. aerugin
[4] = system: Acinetobacter baumannii pittii AG225; experiment: MIC by broth microdilution, Acinetobacter baumannii; format: cell-based; conditions: strain AG225 Acinetobacter baumannii pittii
[5] = system: E coli wild type; experiment: MIC by broth microdilution, wild type E coli; format: cell-based; conditions: for MIC AG160 E. coli WT: clinical isolate AG160 WT; for MIC AG160 E. coli WT / MIC pH430 E. coli WT: Table 2 (Example 4); for MIC pH430 E. coli WT: engineered strain pH430 WT; for MIC AG212 E. coli: strain AG212 E. coli (ATCC25922); for MIC: Escherichia coli
[6] = system: M. smegmatis SZ380; experiment: MIC by broth microdilution, M. smegmatis; conditions: for MIC SZ380 M. smegmatis: strain SZ380 Mycobacterium smegmatis; for MIC: Mycolicibacterium smegmatis
[7] = system: Enterobacter cloacae AG290; experiment: MIC by broth microdilution, Enterobacter cloacae; format: cell-based; conditions: strain AG290 Enterobacter cloacae; for MIC: read-out: MIC AG290 E. cloacae
[8] = system: Klebsiella pneumonia AG215; experiment: MIC by broth microdilution, Klebsiella pneumonia; format: cell-based; conditions: strain AG215 Klebsiella pneumonia; for MIC: Klebsiella pneumoniae, read-out: MIC AG215 K. pneumon
[9] = system: M. abscessus; experiment: MIC by broth microdilution, M. abscessus; format: cell-based; conditions: Mycobacteroides abscessus
[10] = ATCC25922, strain AG212 E. coli (ATCC25922), read-out: MIC AG212 E. coli
[11] = SZ380, read-out: MIC SZ380 M. smegmatis, strain SZ380 Mycobacterium smegmatis

For “5″-Deoxy-5″-ureido-paromomycin acetate salt [Compound 141]”, the “MIC AG037 E. coli APH(3′)-III” value ([1]; Table 2 (Example 4)) was greater than 128 µg/mL, the “MIC pH421 E. coli APH(3′)-I” value ([1]; Table 2 (Example 4)) was greater than 64 μg/ml and the “MIC pH422 E. coli APH(3′)-II” value ([1]; Table 2 (Example 4)) was greater than 64 μg/ml. The “MIC pH423 E. coli APH(3′)-VI” value ([1]; Table 2 (Example 4)) was greater than 64 μg/ml, the “MIC50 MRSA AG38” value ([2]; Table 1 (Example 1)) was 4 to 8 µg/mL and the “MIC50 MRSA AG39” value ([2]; strain AG39, Table 1 (Example 1)) was greater than 128 µg/mL. The “MIC50 MRSA AG42” value ([2]; strain AG42, Table 1 (Example 1)) was greater than 128 µg/mL, the “MIC50 MRSA AG44” value ([2]; strain AG44, Table 1 (Example 1)) was 4 µg/mL and the “MIC50 P aeruginosa AG31” value ([3]; strain AG31, Table 1 (Example 1)) was greater than 128 µg/mL. For the same compound, the “MIC50 P aeruginosa AG32” value ([3]; strain AG32, Table 1 (Example 1)) was greater than 128 µg/mL, the “MIC50 P aeruginosa AG33” value ([3]; strain AG33, Table 1 (Example 1)) was greater than 128 µg/mL and the “MIC50 P aeruginosa AG86” value ([3]; strain AG86, Table 1 (Example 1)) was greater than 128 µg/mL. The “MIC AG220 P. aerugin” value [3] was greater than 64 µg/mL, the “MIC AG225 A. baumannii” value [4] was 4 µg/mL and the “MIC E coli AG006 wt” value ([5]; AG006 wt, Table 2 (Example 1)) was 1 µg/mL. The “MIC AG160 E. coli WT” value [5] was 4 µg/mL, the “MIC pH430 E. coli WT” value [5] was 2-4 μg/ml and the “MIC50 E coli AG01” value ([5]; strain AG01, Table 1 (Example 1)) was 16 µg/mL. The “MIC50 E coli AG03” value ([5]; strain AG03, Table 1 (Example 1)) was 16 µg/mL, the “MIC50 E coli AG55” value ([5]; strain AG55, Table 1 (Example 1)) was 16 µg/mL and the “MIC AG212 E. coli” value [5] was 4 µg/mL. The “MIC SZ380 M. smegmatis” value [6] was 2 µg/mL, the “MIC AG290 E. cloacae” value [7] was 2 to 4 µg/mL and the “MIC AG215 K. pneumon” value [8] was 2 µg/mL.

CCNC1[C@@H](OC2C(N)CC(N)[C@@H](O)[C@H]2O[C@@H]2O[C@H](CO)[C@H](O)C2O)OC(CN)[C@@H](O)[C@@H]1O (some centres unmarked) [Compound 037] showed an MIC ([1]; read-out: MIC E. coli pGB2armA armA) of 64 to 128 µg/mL (≈ 133 to 265 µM), an MIC ([1]; read-out: MIC E. coli pH434 AAC(2′)-Ib) of 32 µg/mL (≈ 66.3 µM) and an MIC ([5]; WT, Table 5 (Example 3), read-out: MIC E. coli WT) of 16 to 32 µg/mL (≈ 33.2 to 66.3 µM). The MIC ([6]; SZ380, read-out: MIC M. smegmatis SZ380 WT, SZ380 WT, Table 5 (Example 3)) was 64 µg/mL (≈ 133 µM), the MIC ([9]; ATCC19977, ATCC 19977 WT, Table 5 (Example 3), read-out: MIC M. abscessus ATCC 19977 WT) was 128 µg/mL (≈ 265 µM) and the MIC ([9]; read-out: MIC M. abscessus clinical isolate) was greater than 128 µg/mL. The MIC ([9]; read-out: MIC M. abscessus engineered Δeis2) was 32 µg/mL (≈ 66.3 µM).

CCO[C@@H]1C(CN)O[C@H](O[C@@H]2C(N)C[C@@H](N)C(O)[C@H]2O[C@@H]2O[C@H](CO)[C@H](OCCN)C2O)[C@@H](N)C1O (some centres unmarked) [Compound 073] showed an MIC [3] greater than 128 µg/mL, an MIC [4] of 8 µg/mL (≈ 15.2 µM) and an MIC [5, 10] of 8 µg/mL (≈ 15.2 µM). It also gave an MIC [6, 11] of 8 µg/mL (≈ 15.2 µM), an MIC [7] of 4 µg/mL (≈ 7.61 µM) and an MIC [8] of 4 µg/mL (≈ 7.61 µM).

For NCC1O[C@H](O[C@@H]2C(N)C[C@@H](N)C(O)[C@H]2O[C@@H]2O[C@H](CO)[C@H](F)C2O)[C@@H](N)C(O)[C@@H]1O (some centres unmarked) [Compound 093], the MIC [3] was greater than 64 µg/mL, the MIC [4] was 16 µg/mL (≈ 35.1 µM) and the MIC ([5]; ATCC25922, read-out: MIC AG212 E. coli, strain AG212 E. coli (ATCC25922)) was 2 µg/mL (≈ 4.38 µM). It also gave an MIC [6, 11] of 8 µg/mL (≈ 17.5 µM), an MIC [7] of 2 µg/mL (≈ 4.38 µM) and an MIC [8] of 1 to 2 µg/mL (≈ 2.19 to 4.38 µM).

CCC[C@@H]1C(CO)O[C@H](O[C@@H]2C(N)C[C@@H](N)C(O)[C@H]2O[C@@H]2O[C@H](CO)[C@H](O[C@H]3C[C@@H](CN)[C@@H](O)C(O)C3N)C2O)[C@@H](N)C1O (some centres unmarked) [Compound 116] was tested, and the “MIC AG163 E. coli APH(3′)-I” value ([1]; clinical isolate AG163 APH(3′)-I, Table 2 (Example 4)) was greater than 64 µg/mL, the “MIC AG166 E. coli APH(3′)-II” value ([1]; clinical isolate AG166 APH(3′)-II, Table 2 (Example 4)) was 2 to 4 µg/mL and the “MIC AG037 E. coli APH(3′)-III” value ([1]; Table 2 (Example 4)) was greater than 64 µg/mL. For the same compound, the “MIC pH421 E. coli APH(3′)-I” value ([1]; Table 2 (Example 4)) was greater than 32 μg/ml, the “MIC pH422 E. coli APH(3′)-II” value ([1]; Table 2 (Example 4)) was 0.5 μg/ml and the “MIC pH423 E. coli APH(3′)-VI” value ([1]; Table 2 (Example 4)) was 1 μg/ml. The “MIC AG220 P. aerugin” value [3] was 4 µg/mL (≈ 6.25 µM), the “MIC AG225 A. baumannii” value [4] was 2 µg/mL (≈ 3.13 µM) and the “MIC AG160 E. coli WT” value [5] was 1 µg/mL (≈ 1.56 µM). For the same compound, the “MIC pH430 E. coli WT” value [5] was 0.5 μg/ml, the “MIC AG212 E. coli” value [5] was 2 µg/mL (≈ 3.13 µM) and the “MIC SZ380 M. smegmatis” value [6] was 1 µg/mL (≈ 1.56 µM). The “MIC AG290 E. cloacae” value [7] was 1 µg/mL (≈ 1.56 µM) and the “MIC AG215 K. pneumon” value [8] was 1 µg/mL (≈ 1.56 µM).

CCC(O)C1OC(OC2C(N)CC(N)C(O)C2OC2OC(CO)C(OC3OC(CN)C(O)C(O)C3N)C2O)C(N)C(O)C1O (centres unmarked) [Compound 189] was tested, and the “MIC50 MRSA AG38” value ([2]; Table 1 (Example 2)) was 4 to 8 µg/mL, the “MIC AG220 P. aerugin” value [3] was greater than 64 µg/mL and the “MIC AG225 A. baumannii” value [4] was 4 to 8 µg/mL. The “MIC AG212 E. coli” value [5] was 8 µg/mL (≈ 12.4 µM), the “MIC AG290 E. cloacae” value [7] was 2 to 4 µg/mL and the “MIC AG215 K. pneumon” value [8] was 2 µg/mL (≈ 3.11 µM).

CCC[C@H]1C[C@H](N)[C@@H](O[C@@H]2C(N)C[C@@H](N)C(O)[C@H]2O[C@@H]2O[C@H](CNC=O)[C@H](O[C@H]3OC(CN)[C@@H](O)C(O)C3N)C2O)OC1CO (some centres unmarked) [Compound 190] was tested, and the MIC [3] was greater than 64 µg/mL, the MIC [4] was greater than 64 µg/mL and the MIC [5, 10] was 16 µg/mL (≈ 24.5 µM). The MIC [7] was 16 to 32 µg/mL (≈ 24.5 to 49 µM) and the MIC [8] was 32 µg/mL (≈ 49 µM).
